The test system of one assay is ES-derived cells. The assay can be described thus: Methylcellulose hematopoietic colony forming unit (CFU) assay of ES-derived cells exposed to wall shear stress or static culture. It counts as cell-based, mouse. The note with it: 2 mM; for number of CFUs in ES-derived cultures in static conditions: static conditions (no shear stress), n=2. How it is done:
Ainv15 CDX4-inducible mouse embryonic stem cells (iCDX4 ES) were cultured on mitomycin-treated Mouse Embryonic Fibroblasts (MEFs) (Chemicon, strain CF-1) and passaged every 2 to 3 days with 0.25% trypsin/EDTA as previously described. Wang et al., 102 P.N.A.S. 19081-86 (2005). To induce differentiation, ES cells were trypsinized, gently dispersed by repetitive pipetting and re-plated for 45 min at 37° C. for MEF depletion. Floating and loosely-adherent cells were gathered, checked for viability with trypan blue, and diluted in Embryoid Body (EB) differentiation media (Iscove's Modified Dulbecco's Medium [IMDM], 10% FCS [STEMCELL Tech., Vancouver, British Columbia, cat #06952], Penicillin 10 units/ml, Streptomycin 10 μg/ml, 1 mM L-Glutamine, Monothiolglycerol 3.8 nl/ml, Fe-saturated transferrin 0.2 mg/ml, Ascorbic Acid 0.5 mg/ml), to a final concentration of 6.7×10^3 cell/ml. EBs were cultured via the hanging drop method in 15 μl drops on 15 cm bacterial dishes. Typically, 100 plates of EBs were used per experiment. After 48 hr, EBs were pooled into calcium and magnesium containing warm PBS and collected by precipitation in 50 ml Falcon tubes. Pooled EBs were transferred to 10 cm tissue culture dishes containing 10 ml of EB differentiation media each, placed on an orbital shaker moving at 75 rev/min, and incubated for an additional 30 hr. Following this second culture phase, day 3.25-EBs were collected by precipitation, washed two times in 30 ml calcium-free PBS and trypsinized for 1 min in a 1:1 dilution of calcium-free PBS and 0.25% Trypsin-EDTA. Trypsinization was blocked by addition of 10 ml EB differentiation media.
More specifically, in the instant approach, plates were coated with a thick layer of 1% gelatin (DIFCO #214340, Becton Dickinson). After 12 hr, cells were washed three times with 10 ml of warm PBS with calcium and incubated for 45 min with EB differentiation media with or without 2 mM N(G)-nitro-L-arginine methyl ester (L-NAME) or 2 mM N(G)-nitro-D-arginine methyl ester (D-NAME) (Sigma-Aldrich). Cells to be moved to the dynamic flow system were incubated in 7 ml of media, and static controls incubated in 20 ml of media. Following 45 min incubation, cells were either moved to the Dynamic Flow System and exposed to shear stress or maintained in a standard cell culture incubator. The shear stress ramped up in a step-wise fashion from 0 dyne/cm^2 to 5 dyne/cm^2 over a period of 12 hr, in order to minimize cell loss during the transition from static to dynamic culture. Following the 12 hr ramping period, the cells were then exposed to a constant 5 dyne/cm^2 shear stress for 36 hr. […]
Methylcellulose assay was performed as previously described and scored on days 8 to 10 post-plating. […]

For another assay, the system named is Runx1. Kind of assay: Quantitative real-time PCR gene expression analysis of Runx1 in ES-derived cells (CD41+/cKit+). It counts as cell-based, mouse. The note with it: 2 mM; for Runx1 expression in static cultures of ES-derived cells: static conditions, n=2. As to the method: More specifically, in the instant approach, plates were coated with a thick layer of 1% gelatin (DIFCO #214340, Becton Dickinson). After 12 hr, cells were washed three times with 10 ml of warm PBS with calcium and incubated for 45 min with EB differentiation media with or without 2 mM N(G)-nitro-L-arginine methyl ester (L-NAME) or 2 mM N(G)-nitro-D-arginine methyl ester (D-NAME) (Sigma-Aldrich). Cells to be moved to the dynamic flow system were incubated in 7 ml of media, and static controls incubated in 20 ml of media. Following 45 min incubation, cells were either moved to the Dynamic Flow System and exposed to shear stress or maintained in a standard cell culture incubator. The shear stress ramped up in a step-wise fashion from 0 dyne/cm^2 to 5 dyne/cm^2 over a period of 12 hr, in order to minimize cell loss during the transition from static to dynamic culture. Following the 12 hr ramping period, the cells were then exposed to a constant 5 dyne/cm^2 shear stress for 36 hr. In cells exposed to shear stress, culture media with or without D-NAME or L-NAME were automatically exchanged and stored at 37° C. and 5% CO2. In static controls, culture medium was replaced after 24 hr and stored in 75 cm^2 flasks in a cell culture incubator. After 48 hr exposure to shear stress or growth under static conditions, cells were detached by 10 min incubation with a 1:1 dilution of Trypsin-Versene mixture (Cambrex, #17-161E) and Hank's Balanced Salt Solution.
Total RNA was extracted with a RNEASY® Micro Kit (QIAGEN, Inc., Valencia, Calif.), according to manufacturer's instructions. For RNA extraction from CD41^+/cKIT^+ cells, approximately 7,000 cells were sorted directly into 300 μl of Lysis Buffer. Reverse transcription of RNA was performed using MULTISCRIBE™ […] (Applied Biosystems, Foster City, Calif.), according to manufacturer's instructions. When processing FACS-sorted cells, RNA was eluted in 20 μl and all collected RNA was used in 50 μl reverse transcription reaction. […]
(Real-time PCR tracks product formation cycle by cycle.)

Assay [1] relates to hematopoietic progenitors in the aorta-gonad-mesonephros (AGM) region. The assay can be described thus: In vivo colony forming unit (CFU) assay of the AGM region after treating pregnant mice. The arrangement: species or system mouse. Conditions: 300 mg/kg i.p. on E8.5 and 24 hr later, E10.5 embryos, versus D-NAME, p=0.0008. As to the method: Methylcellulose assay was performed as previously described and scored on days 8 to 10 post-plating. Wang et al., 102 P.N.A.S. 19081-86 (2005).
Day-7 post-coitum timed-pregnant Swiss-Webster mice were purchased from Taconic Farms. Noon on the day the copulation plug was found was designated 0.5 days. On day E8.5 (day 9 post coitum) mice were intraperitoneally injected with 300 mg/kg of L-NAME or D-NAME (SIGMA) dissolved in sterile, apyrogenic saline solution using a dose volume of 10 ml/kg. The injection was repeated after 24 hr. Exactly 24 hr after the second injection, mice were euthanized with CO2, embryos were harvested, and a conservative dissection of the AGM was performed. Embryo trunks were dissociated with 0.1% dispase and analyzed with the methylcellulose assay. Experiments were carried out with Institutional Animal Care and Use Committee approval from Harvard Medical School or Children's Hospital, Boston.

“Also recorded” adds a separate entry of the source.

For `COC(=O)[C@H](N)CCCN=C(N)N[N+](=O)[O-]` [D-NAME, N(G)-nitro-D-arginine methyl ester], in the assay with ES-derived cells, the “number of CFUs in ES-derived cultures in static conditions” value was “do not affect; also recorded: no effect”. In addition, the “Runx1 expression in static cultures of ES-derived cells” value in the assay on Runx1 is listed as “do not affect; also recorded: no effect”.

Consider `COC(=O)[C@@H](N)CCCNC(=N)N[N+](=O)[O-]` [L-NAME, N(G)-nitro-L-arginine methyl ester], for which the “shear stress-induced enrichment in CFUs” value with ES-derived cells (shear stress, compared with cells treated with D-NAME) was “significant reduction”. In the assay on ES-derived cells (wall shear stress 5 dyne/cm^2, n=3, p=0.04), the “reduction of the WSS-mediated increase in hematopoietic colony forming units” value stood at 50%. For the same molecule, in the assay on ES-derived cells, the “number of CFUs in ES-derived cultures in static conditions” value is “do not affect; also recorded: no effect”. In addition, in assay [1], the “number of CFUs per AGM (hematopoietic progenitors in the AGM region)” value is on record as “reduction; also recorded: marked decrease”. Further, in the assay with Runx1 (CD41+/cKit+ cells exposed to shear stress, n=3), the “WSS-mediated Runx1 upregulation” value is “does not affect; also recorded: did not affect”. In addition, the “Runx1 expression in static cultures of ES-derived cells” value with Runx1 is recorded as “do not affect; also recorded: no effect”.

Values taken from US20120195862A1, “BIO[…] OF HEMATOPOIESIS” (CHILDREN'S MEDICAL CENTER CORPORATION, priority 2009, published 2012).
